# Results published in ChEMBL document CHEMBL3112491, “3-(5-)-Amino-o-diarylisoxazoles: regioselective synthesis and antitubulin activity” (2014).
# Legend:
# Type in all cases: functional
# HL-60(TB) = assay: Growth inhibition of human HL-60(TB) cells after 48 hrs by sulforhodamine B assay; conditions: HL-60, 48 h
# SNB-19 = assay: Growth inhibition of human SNB19 cells after 48 hrs by sulforhodamine B assay; conditions: SNB-19, 48 h
# SR = assay: Growth inhibition of human SR cells after 48 hrs by sulforhodamine B assay
# [1] = Growth inhibition of human UACC257 cells after 48 hrs by sulforhodamine B assay; conditions: UACC-257, 48 h
# SF-295 = assay: Growth inhibition of human SF295 cells after 48 hrs by sulforhodamine B assay; conditions: SF-295, 48 h
# [2] = Growth inhibition of human OVCAR4 cells after 48 hrs by sulforhodamine B assay; conditions: OVCAR-4, 48 h
# NCI-H23 = assay: Growth inhibition of human NCI-H23 cells after 48 hrs by sulforhodamine B assay; conditions: NCI-H23, 48 h
# SK-MEL-5 = assay: Growth inhibition of human SK-MEL-5 cells after 48 hrs by sulforhodamine B assay; conditions: SK-MEL-5, 48 h
# U-251 = assay: Growth inhibition of human U251 cells after 48 hrs by sulforhodamine B assay; conditions: U-251, 48 h
# NCI-H522 = assay: Growth inhibition of human NCI-H522 cells after 48 hrs by sulforhodamine B assay; conditions: NCI-H522, 48 h
# [3] = Growth inhibition of human SF539 cells after 48 hrs by sulforhodamine B assay; conditions: SF-539, 48 h
# LOX IMVI = assay: Growth inhibition of human LOXIMVI cells after 48 hrs by sulforhodamine B assay
# MDA-MB-435 = assay: Growth inhibition of human MDA-MB-435 cells after 48 hrs by sulforhodamine B assay; conditions: MDA-MB-435, 48 h
# COLO 205 = assay: Growth inhibition of human COLO205 cells after 48 hrs by sulforhodamine B assay; conditions: COLO 205, 48 h
# [4] = Growth inhibition of human OVCAR5 cells after 48 hrs by sulforhodamine B assay; conditions: OVCAR-5, 48 h
# ACHN = assay: Growth inhibition of human ACHN cells after 48 hrs by sulforhodamine B assay
# NCI-H226 = assay: Growth inhibition of human NCI-H226 cells after 48 hrs by sulforhodamine B assay; conditions: NCI-H226, 48 h
# NCI-H322M = assay: Growth inhibition of human NCI-H322M cells after 48 hrs by sulforhodamine B assay
# SW-620 = assay: Growth inhibition of human SW620 cells after 48 hrs by sulforhodamine B assay; conditions: SW-620, 48 h
# T47D = assay: Growth inhibition of human T47D cells after 48 hrs by sulforhodamine B assay
# 786-0 = assay: Growth inhibition of human 786-0 cells after 48 hrs by sulforhodamine B assay; conditions: 786-0, 48 h
# HOP-62 = assay: Growth inhibition of human HOP62 cells after 48 hrs by sulforhodamine B assay; conditions: HOP-62, 48 h
# Paracentrotus lividus [5] = assay: Antimitotic activity in sea urchin fertilized egg assessed as cleavage arrest treated at 8 to 20 mins post-fertilization measured at 2.5 to 5.5 hrs post-fertilization
# PC-3 = assay: Growth inhibition of human PC3 cells after 48 hrs by sulforhodamine B assay; conditions: PC-3, 48 h
# OVCAR-3 = assay: Growth inhibition of human OVCAR3 cells after 48 hrs by sulforhodamine B assay; conditions: OVCAR-3, 48 h
# HCT-116 = assay: Growth inhibition of human HCT116 cells after 48 hrs by sulforhodamine B assay; conditions: HCT-116, 48 h
# [6] = Growth inhibition of human Hs 578T cells after 48 hrs by sulforhodamine B assay
# KM12 = assay: Growth inhibition of human KM12 cells after 48 hrs by sulforhodamine B assay; conditions: KM12, 48 h
# SF-268 = assay: Growth inhibition of human SF268 cells after 48 hrs by sulforhodamine B assay; conditions: SF-268, 48 h
# IGROV-1 = assay: Growth inhibition of human IGROV1 cells after 48 hrs by sulforhodamine B assay; conditions: IGROV-1, 48 h
# SK-OV-3 = assay: Growth inhibition of human SKOV3 cells after 48 hrs by sulforhodamine B assay; conditions: SK-OV-3, 48 h
# MDA-MB-468 = assay: Growth inhibition of human MDA-MB-468 cells after 48 hrs by sulforhodamine B assay; conditions: MDA-MB-468, 48 h
# A549 = assay: Growth inhibition of human A549/ATCC cells after 48 hrs by sulforhodamine B assay; conditions: A549, 48 h
# SNB-75 = assay: Growth inhibition of human SNB75 cells after 48 hrs by sulforhodamine B assay; conditions: SNB-75, 48 h
# MCF7 = assay: Growth inhibition of human MCF7 cells after 48 hrs by sulforhodamine B assay; conditions: MCF7, 48 h
# BT-549 = assay: Growth inhibition of human BT549 cells after 48 hrs by sulforhodamine B assay; conditions: BT-549, 48 h
# [7] = Growth inhibition of human RXF393 cells after 48 hrs by sulforhodamine B assay; conditions: RXF 393, 48 h
# TK-10 = assay: Growth inhibition of human TK10 cells after 48 hrs by sulforhodamine B assay; conditions: TK-10, 48 h
# [8] = Growth inhibition of human UO31 cells after 48 hrs by sulforhodamine B assay; conditions: UO-31, 48 h
# SN12C = assay: Growth inhibition of human SN12C cells after 48 hrs by sulforhodamine B assay
# UACC-62 = assay: Growth inhibition of human UACC62 cells after 48 hrs by sulforhodamine B assay; conditions: UACC-62, 48 h
# HCT-15 = assay: Growth inhibition of human HCT15 cells after 48 hrs by sulforhodamine B assay; conditions: HCT-15, 48 h
# SK-MEL-28 = assay: Growth inhibition of human SK-MEL-28 cells after 48 hrs by sulforhodamine B assay; conditions: SK-MEL-28, 48 h
# Paracentrotus lividus [9] = assay: Antimitotic activity in sea urchin fertilized egg assessed as cleavage alteration treated at 8 to 20 mins post-fertilization measured at 2.5 to 5.5 hrs post-fertilization
# NCI-H460 = assay: Growth inhibition of human NCI-H460 cells after 48 hrs by sulforhodamine B assay; conditions: NCI-H460, 48 h
# [10] = Growth inhibition of human EKVX cells after 48 hrs by sulforhodamine B assay
# M14 = assay: Growth inhibition of human M14 cells after 48 hrs by sulforhodamine B assay; conditions: M14, 48 h
# [11] = Growth inhibition of human HOP92 cells after 48 hrs by sulforhodamine B assay; conditions: HOP-92, 48 h
# MDA-MB-231 = assay: Growth inhibition of human MDA-MB-231 cells after 48 hrs by sulforhodamine B assay; conditions: MDA-MB-231, 48 h
# DU-145 = assay: Growth inhibition of human DU145 cells after 48 hrs by sulforhodamine B assay; conditions: DU-145, 48 h
# Paracentrotus lividus [12] = assay: Microtubule destabilizing activity in sea urchin free-swimming blastula assessed as embryo spinning treated at 9 to 10 hrs post-fertilization measured after 0.15 to 15 hrs
# A498 = assay: Growth inhibition of human A498 cells after 48 hrs by sulforhodamine B assay; conditions: A498, 48 h
# [13] = Growth inhibition of human NCI-ADR-RES cells after 48 hrs by sulforhodamine B assay
# MOLT-4 = assay: Growth inhibition of human MOLT4 cells after 48 hrs by sulforhodamine B assay; conditions: MOLT-4, 48 h
# SK-MEL-2 = assay: Growth inhibition of human SK-MEL-2 cells after 48 hrs by sulforhodamine B assay; conditions: SK-MEL-2, 48 h
# [14] = Growth inhibition of human HCC2998 cells after 48 hrs by sulforhodamine B assay; conditions: HCC 2998, 48 h
# HT-29 = assay: Growth inhibition of human HT-29 cells after 48 hrs by sulforhodamine B assay; conditions: HT-29, 48 h
# OVCAR-8 = assay: Growth inhibition of human OVCAR8 cells after 48 hrs by sulforhodamine B assay; conditions: OVCAR-8, 48 h
smiles,measurement,setting,value
COc1ccc(-c2c(-c3cc4c(c(OC)c3OC)OCO4)noc2N)cc1,GI50,HL-60(TB),189 nM
same,GI50,SNB-19,672 nM
same,GI50,SR,35.9 nM
same,GI50,[1],458 nM
same,GI50,SF-295,274 nM
same,GI50,[2],927 nM
same,GI50,NCI-H23,391 nM
same,GI50,SK-MEL-5,238 nM
same,GI50,U-251,359 nM
same,GI50,NCI-H522,65.5 nM
same,GI50,[3],285 nM
same,GI50,LOX IMVI,523 nM
same,GI50,MDA-MB-435,29.2 nM
same,GI50,COLO 205,272 nM
same,GI50,[4],2100 nM
same,GI50,ACHN,831 nM
same,GI50,NCI-H226,855 nM
same,GI50,NCI-H322M,625 nM
same,GI50,SW-620,210 nM
same,GI50,T47D,568 nM
same,GI50,786-0,578 nM
same,GI50,HOP-62,551 nM
same,EC,Paracentrotus lividus [5],0.2 µM
same,GI50,PC-3,300 nM
same,GI50,OVCAR-3,184 nM
same,GI50,HCT-116,314 nM
same,GI50,[6],438 nM
same,GI50,KM12,112 nM
same,GI50,SF-268,641 nM
same,GI50,IGROV-1,683 nM
same,GI50,SK-OV-3,338 nM
same,GI50,MDA-MB-468,138 nM
same,GI50,A549,523 nM
same,GI50,SNB-75,138 nM
same,GI50,MCF7,280 nM
same,GI50,BT-549,848 nM
same,GI50,[7],335 nM
same,GI50,TK-10,202 nM
same,GI50,[8],669 nM
same,GI50,SN12C,818 nM
same,GI50,UACC-62,513 nM
same,GI50,HCT-15,352 nM
same,GI50,SK-MEL-28,497 nM
same,EC,Paracentrotus lividus [9],0.02 µM
same,GI50,NCI-H460,364 nM
same,GI50,[10],23600 nM
same,GI50,M14,244 nM
same,GI50,[11],837 nM
same,GI50,MDA-MB-231,983 nM
same,GI50,DU-145,487 nM
same,EC,Paracentrotus lividus [12],2 µM
same,GI50,A498,374 nM
same,GI50,[13],126 nM
same,GI50,MOLT-4,674 nM
same,GI50,SK-MEL-2,362 nM
same,GI50,[14],524 nM
same,GI50,HT-29,262 nM
same,GI50,OVCAR-8,448 nM
